We go through one compound from US20140162308A1, “DEVICE AND METHOD FOR I[…] AND COUNTING MICROBES AND DETERMINING ANTIMICROBIAL SENSITIVITY” (Texas State University, priority 2011, published 2014).

In the test the test system is E. Coli B. Kind of test: Antimicrobial sensitivity test: resistance signature of the microbial sample after adding the antibiotic. The format is cell-based. Particulars: 0.9 mL of 10^3 CFU/mL E. Coli B in LB Broth + 0.1 mL antibiotic, room temperature; slope of control samples remains negative; FIGS. 7A-7D. As for the experimental part:
FIGS. 7A-7D depict signatures of microbial sample of 0.9 mL of a concentration of 10^3 CFU/mL of two-hour E. Coli B treated with 0.1 mL of antibiotics or antimicrobials and control samples in the absence thereof. What is common to all FIGS. 7A-7D is the slope for signatures with antibiotics or antimicrobials become positive, i.e., the resistance component of total impedance of the microbial sample increases, upon addition of the antibiotic or antimicrobial. The slope of the control samples remains negative.
In further detail, a difference in the degree of the slope change for the signature can be observed. […]
An overnight bacterial culture of E. coli B with a concentration of around 10^9 cells which had attained room temperature were diluted using LB Broth which had also attained room temperature to a final concentration of 10^3 cells. 0.9 ml of this solution was then placed into one sensor well which was connected to lead #1 of a reader unit. An additional 0.9 ml of the bacteria was placed into a second sensor well which was connected to lead#2 of a reader unit. […]
An overnight bacterial culture of E. coli B with a concentration of around 10^9 cells that had attained room temperature were diluted to a final concentration of 10^3 cells. 0.9 ml of this solution was then placed into a first sensor well which was connected to lead #1 of a reader unit. […]

Take `Cc1cc(NS(=O)(=O)c2ccc(N)cc2)no1` [sulfamethoxazole]: the “slope of the signature (resistance component of total impedance of the microbial sample) upon addition of the antibiotic or antimicrobial” value is “steeper than for azithromycin”.
